In brackets after ≈: the same amount, converted by molar mass. Like-named read-outs stand apart in the source and are kept apart here.
Tests used:
OleD P67T = molecular target: T1, OleD P67T (Streptomyces antibioticus, UniProt Q53685, P55A/P67T/R82V/R83E/T84P); assay: Rate of glucoside formation with acceptors (RP-HPLC); type: biochemical; conditions: 200 μM acceptor, 1 mM UDPG
T1 construct: made in house; host or cells: E. coli (site-directed mutant of pET28/OleD)
Description: (§1) Enzyme assays for the determination of glycosyl transfer rate to FIG. 1: 4, Table 1: 27-32 were carried out in a total volume of 500 μl 50 mM Tris-HCl (pH8.0) containing 5 mM MgCl2, 200 μM acceptor, 1 mM UDPG, and 50 μg pure enzyme. Aliquots (100 μl) were removed between 0 and 30 min, at which time product formation was still linear with respect to time, and quenched with 90 μl of an 8:1 mixture of ice-cold MeOH/HCl, and centrifuged at 14,000 rpm for 10 min. Supernatants were analyzed by analytical reverse-phase HPLC with a 250 mm×4.6 mm Gemini […] C18 column (Phenomenex, Torrance, Calif.) using a gradient of 10-90% CH3CN in 0.1% trifluoroacetic acid (TFA)/H2O in 20 min at 1 ml/min, with detection at 254 nm. HPLC peak areas were integrated, and the product concentration calculated as a percent of the total peak area. Product identity was confirmed by co-elution with a commercial standard when available and, in all cases, by LC-MS (FIG. 8).
(§2) Reaction conditions for assay of macrolide glycosylation were identical to that for FIG. 1: 1, except that typically, less enzyme was used (1-10 μg) and reactions were quenched with an equal volume of ice-cold MeOH. Centrifuged reaction mixtures were analyzed by analytical reverse-phase HPLC with a Gemini 5μ C18 column (Phenomenex) using a gradient of 0-90% CH3CN in 50 mM NH3COOH over 30 min at 1 ml/min. Products and acceptor macrolide were detected by evaporative light scattering detection (ELSD) using a drift tube temperature of 105° C. and a nitrogen flow of 2.5 ml/min. All products were characterized by APCI LC-MS on an Agilent 1100 Series LC/MSD quadrapole mass spectrometer connected to a UV detector. Quenched reaction mixtures were analyzed by reverse-phase HPLC with a 10 mm×4.6 mm Zorbax Extend 5μ C18 Analytical Guard Column (Agilent Technologies) using an isocratic gradient of 80% MeOH in 2 min at 1 ml/min, with detection at 254 nm.
(§3) Enzyme reactions were carried out in a total volume of 500 μl 50 mM Tris-HCl (pH8.0) containing 5 mM MgCl2, 200 μM acceptor, 1 mM UDPG, and 50 μg pure enzyme. Aliquots (100 μl) were removed between 0 and 30 min, and quenched with 90 μl of an 8:1 mixture of ice-cold MeOH/HCl for activity towards FIG. 1: 4, Table 1: 27-32, or with 90 μl of ice-cold MeOH for activity towards FIG. 1: 1, and the samples centrifuged at 14,000 rpm for 10 min.
(§4) For determination of activity to FIG. 1: 4, Table 1: 27-32, supernatants were analyzed by analytical reverse-phase HPLC with a Gemini 5μ C18 column (Phenomenex) using a gradient of 10-90% CH3CN in 0.1% trifluoroacetic acid (TFA)/H2O in 20 min, with detection at 254 nm. HPLC peak areas were integrated, and the product concentration calculated as a percent of the total peak area. All products were characterized by LC-MS. Mass spectra were obtained using electrospray ionization on an Agilent 1100 HPLC-MSD SL quadrapole mass spectrometer connected to a UV/Vis diode array detector. For LC-MS analysis, quenched reaction mixtures (see below) were analyzed by analytical reverse-phase HPLC with a 250 mm×4.6 mm Gemini 5μ C18 column (Phenomenex, Torrance, Calif.) using a gradient of 10-90% CH3CN in 0.1% formic acid/H2O in 20 min at 1 ml/min, with detection at 254 nm.
as §2, with “For determination” for “Reaction conditions for assay”, “activity toward” for “macrolide glycosylation were identical to that for”, “centrifuged” for “except that typically, less enzyme was used (1-10 μg) and reactions were quenched with an equal volume of ice-cold MeOH. Centrifuged”, “Compounds FIG. 1: 1” for “Products”, “3” for “acceptor macrolide”

WT OleD = molecular target: T2, WT OleD (Streptomyces antibioticus, UniProt Q53685, P55A/R82V/R83E/T84P); assay: as above; type: biochemical; conditions: 200 μM acceptor, 1 mM UDPG
T2 construct: made in house; host or cells: E. coli BL21(DE3)pLysS, plasmid pET28/OleD
Description: as §1, §2, §3, §4
as §2, with “For determination” for “Reaction conditions for assay”, “activity toward” for “macrolide glycosylation were identical to that for”, “centrifuged” for “except that typically, less enzyme was used (1-10 μg) and reactions were quenched with an equal volume of ice-cold MeOH. Centrifuged”, “Compounds FIG. 1: 1” for “Products”, “3” for “acceptor macrolide”

OleD A242V = molecular target: T3, OleD A242V (Streptomyces antibioticus, UniProt Q53685, A242V/P55A/R82V/R83E/T84P); assay: as above; type: biochemical; conditions: 200 μM acceptor, 1 mM UDPG
T3 construct: made in house; host or cells: E. coli BL21(DE3)pLysS (error-prone PCR clone in pET28a)
Description: as §1, §2, §3, §4
as §2, with “For determination” for “Reaction conditions for assay”, “activity toward” for “macrolide glycosylation were identical to that for”, “centrifuged” for “except that typically, less enzyme was used (1-10 μg) and reactions were quenched with an equal volume of ice-cold MeOH. Centrifuged”, “Compounds FIG. 1: 1” for “Products”, “3” for “acceptor macrolide”

OleD S132F = molecular target: T4, OleD S132F (Streptomyces antibioticus, UniProt Q53685, P55A/R82V/R83E/S132F/T84P); assay: as above; type: biochemical; conditions: 200 μM acceptor, 1 mM UDPG
T4 construct: made in house; host or cells: E. coli (site-directed mutant of pET28/OleD)
Description: as §1, §2, §3, §4
as §2, with “For determination” for “Reaction conditions for assay”, “activity toward” for “macrolide glycosylation were identical to that for”, “centrifuged” for “except that typically, less enzyme was used (1-10 μg) and reactions were quenched with an equal volume of ice-cold MeOH. Centrifuged”, “Compounds FIG. 1: 1” for “Products”, “3” for “acceptor macrolide”

OleD P67T/S132F/A242V = molecular target: T5, OleD P67T/S132F/A242V (Streptomyces antibioticus, UniProt Q53685, A242V/P67T/S132F); assay: as above; type: biochemical; conditions: for Rate of glucoside formation, P67T/S132F/A242V: 200 μM acceptor, 1 mM UDPG
T5 construct: made in house; host or cells: E. coli (site-directed mutant of pET28/OleD)
Description: as §1, with “8). […]” for “8).”
as §3, §4
as §2, with “For determination” for “Reaction conditions for assay”, “activity toward” for “macrolide glycosylation were identical to that for”, “centrifuged” for “except that typically, less enzyme was used (1-10 μg) and reactions were quenched with an equal volume of ice-cold MeOH. Centrifuged”, “Compounds FIG. 1: 1” for “Products”, “3” for “acceptor macrolide”

[1] = Solubility limit of acceptors; type: physicochemical

| SMILES | Rate of glucoside formation, P67T (OleD P67T) | Rate of glucoside formation, WT (WT OleD) | Rate of glucoside formation, A242V (OleD A242V) | Rate of glucoside formation, S132F (OleD S132F) | Rate of glucoside formation, P67T/S132F/A242V (OleD P67T/S132F/A242V) | solubility ([1]; in kinetic assay, read-out: solubility limit) [mM] | specific activity, fold higher than WT OleD (OleD P67T/S132F/A242V; 4 and 2 as acceptor/donor) [fold] | Fold-improvement compared to WT OleD (OleD P67T/S132F/A242V; rate of P67T/S132F/A242V versus WT, UDPG donor) [fold] | solubility ([1]; aqueous with cosolvent or surfactant or cyclodextrin, in water/DMSO, read-out: solubility limit) [mM] | solubility ([1]; enzyme assay buffer (50 mM Tris-HCl with 5 mM MgCl2), pH 8, limited solubility in assay, read-out: solubility) [mM] |
| --- | --- | --- | --- | --- | --- | --- | --- | --- | --- | --- |
| CC(C)=CCc1cc(C(=O)Nc2c(O)c3ccc(O)c(C)c3oc2=O)ccc1O [novobiocic acid (29), novobiocic acid] | 0.65 mmols/product formed/min/μg enzyme × 10^3 | 0.24 mmols/product formed/min/μg enzyme × 10^3 | 0.33 mmols/product formed/min/μg enzyme × 10^3 | 0.49 mmols/product formed/min/μg enzyme × 10^3 | 1.14 mmols/product formed/min/μg enzyme × 10^3 | 5 (≈ 1980 µg/mL) |  |  |  |  |
| Cc1cc(=O)oc2cc(O)ccc12 [4-Me-umb (4), 7-hydroxy-4-methylcoumarin] | 15.7 mmols/product formed/min/μg enzyme × 10^3 | 2.5 mmols/product formed/min/μg enzyme × 10^3 | 5.4 mmols/product formed/min/μg enzyme × 10^3 | 6.3 mmols/product formed/min/μg enzyme × 10^3 | 84 mmols/product formed/min/μg enzyme × 10^3 |  | ~30 | 33 | 10 (≈ 1760 µg/mL) | < 4 |

— US8093028B2, “Engineered glycosyltransferases with expanded substrate specificity” (Wisconsin Alumni Research Foundation, priority 2007, dated 2012)
